Laboratory results published in the NIST ThermoML archive (doi:10.1016/j.jct.2012.12.017).
± gives the expanded uncertainty stated by the source.

Columns and labels:
[1] = 298.15 K; 101.33 kPa; Liquid; Vibrating tube method
[2] = refractive index (Na D-line) (dimensionless); conditions: 298.15 K; 101.33 kPa; Liquid; Abbe refractometer

CCC[n+]1cccc(C)c1.O=S(=O)([N-]S(=O)(=O)C(F)(F)F)C(F)(F)F
mass density [1]: 1447.94 ± 0.62 kg/m3 | refractive index [2]: 1.44485 ± 0.00033

CC[n+]1cccc(C)c1.O=S(=O)([N-]S(=O)(=O)C(F)(F)F)C(F)(F)F
mass density [1]: 1488.5 ± 0.66 kg/m3 | refractive index [2]: 1.44376 ± 0.00033

CCO [ethanol]
mass density [1]: 785.2 ± 0.24 kg/m3 | refractive index [2]: 1.35936 ± 0.00033

CCCCCCC [heptane]
mass density [1]: 679.57 ± 0.25 kg/m3 | refractive index [2]: 1.38529 ± 0.00033

CCCCCC [hexane]
mass density [1]: 655.2 ± 0.25 kg/m3 | refractive index [2]: 1.37241 ± 0.00033
